From PubChem BioAssay (NCI)
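Grown in 96-well plates, cells were treated for 48 hours with each compound at five concentrations. Insufficient inhibition: endpoint recorded as highest concentration tested. TGI: concentration producing complete growth inhibition.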

Columns and labels:
Assay in all cases: NCI tumour cell line growth inhibition, 48 h
786-0 renal = system: 786-0 renal
A498 renal = system: A498 renal
A549 NSCLC = system: A549 NSCLC
ACHN renal = system: ACHN renal
BT-549 breast = system: BT-549 breast
CAKI-1 renal = system: CAKI-1 renal
CCRF-CEM leukemia = system: CCRF-CEM leukemia
COLO 205 colon = system: COLO 205 colon
DU-145 prostate = system: DU-145 prostate
EKVX NSCLC = system: EKVX NSCLC
HCC-2998 colon = system: HCC-2998 colon
HCT-116 colon = system: HCT-116 colon
HCT-15 colon = system: HCT-15 colon
HL-60(TB) leukemia = system: HL-60(TB) leukemia
HOP-62 NSCLC = system: HOP-62 NSCLC
HOP-92 NSCLC = system: HOP-92 NSCLC
HS 578T breast = system: HS 578T breast
HT29 colon = system: HT29 colon
IGROV1 ovarian = system: IGROV1 ovarian
K-562 leukemia = system: K-562 leukemia
KM12 colon = system: KM12 colon
LOX IMVI melanoma = system: LOX IMVI melanoma
M14 melanoma = system: M14 melanoma
MALME-3M melanoma = system: MALME-3M melanoma
MCF7 breast = system: MCF7 breast
MDA-MB-231 breast = system: MDA-MB-231 breast
MDA-MB-435 = system: MDA-MB-435
MDA-N = system: MDA-N
MOLT-4 leukemia = system: MOLT-4 leukemia
NCI-H226 lung = system: NCI-H226 lung
NCI-H23 lung = system: NCI-H23 lung
NCI-H460 lung = system: NCI-H460 lung
NCI-H522 lung = system: NCI-H522 lung
NCI/ADR-RES ovarian = system: NCI/ADR-RES ovarian
OVCAR-3 ovarian = system: OVCAR-3 ovarian
OVCAR-4 ovarian = system: OVCAR-4 ovarian
OVCAR-5 ovarian = system: OVCAR-5 ovarian
OVCAR-8 ovarian = system: OVCAR-8 ovarian
PC-3 prostate = system: PC-3 prostate
RPMI-8226 leukemia = system: RPMI-8226 leukemia
RXF 393 renal = system: RXF 393 renal
SF-268 CNS = system: SF-268 CNS
SF-295 CNS = system: SF-295 CNS
SF-539 CNS = system: SF-539 CNS
SK-MEL-2 melanoma = system: SK-MEL-2 melanoma
SK-MEL-28 melanoma = system: SK-MEL-28 melanoma
SK-MEL-5 melanoma = system: SK-MEL-5 melanoma
SK-OV-3 ovarian = system: SK-OV-3 ovarian
SN12C renal = system: SN12C renal
SNB-19 CNS = system: SNB-19 CNS
SNB-75 CNS = system: SNB-75 CNS
SR leukemia = system: SR leukemia
SW-620 colon = system: SW-620 colon
T-47D breast = system: T-47D breast
TK-10 renal = system: TK-10 renal
U251 CNS = system: U251 CNS
UACC-257 melanoma = system: UACC-257 melanoma
UACC-62 melanoma = system: UACC-62 melanoma
UO-31 renal = system: UO-31 renal

`ClCc1nn(-c2ccccc2)c(CCl)c1CCl` showed a TGI (786-0 renal) of 8.77 µM, a TGI (A498 renal) of 24.5 µM and a TGI (A549 NSCLC) of 24.5 µM. It also gave a TGI (ACHN renal) of 7.62 µM, a TGI (BT-549 breast) of 18.3 µM and a TGI (CAKI-1 renal) of 20.6 µM. For the same compound, the TGI (CCRF-CEM leukemia) was 6.02 µM, the TGI (COLO 205 colon) was 8.95 µM and the TGI (DU-145 prostate) was 16.6 µM. It also gave a TGI (EKVX NSCLC) of 8.97 µM, a TGI (HCC-2998 colon) of 24.7 µM and a TGI (HCT-116 colon) of 7.54 µM. The TGI (HCT-15 colon) was 9.06 µM, the TGI (HL-60(TB) leukemia) was 6.78 µM and the TGI (HOP-62 NSCLC) was 33.8 µM. It also gave a TGI (HOP-92 NSCLC) of 9.85 µM, a TGI (HS 578T breast) of 58.3 µM and a TGI (HT29 colon) of 9.9 µM. It also gave a TGI (IGROV1 ovarian) of 18.2 µM, a TGI (K-562 leukemia) of 6.34 µM and a TGI (KM12 colon) of 11.9 µM. It also gave a TGI (LOX IMVI melanoma) of 4.29 µM, a TGI (M14 melanoma) of 10.3 µM and a TGI (MALME-3M melanoma) of 9.88 µM. The TGI (MCF7 breast) was 16 µM, the TGI (MDA-MB-231 breast) was 12.1 µM and the TGI (MDA-MB-435) was 6.6 µM. It also gave a TGI (MDA-N) of 8.88 µM, a TGI (MOLT-4 leukemia) of 6.76 µM and a TGI (NCI-H226 lung) of 13.9 µM. The TGI (NCI-H23 lung) was 14.3 µM, the TGI (NCI-H460 lung) was 12.5 µM and the TGI (NCI-H522 lung) was 10.2 µM. The TGI (NCI/ADR-RES ovarian) was greater than 100 µM, the TGI (OVCAR-3 ovarian) was 11 µM and the TGI (OVCAR-4 ovarian) was 7.61 µM. The TGI (OVCAR-5 ovarian) was 15.2 µM, the TGI (OVCAR-8 ovarian) was 6.17 µM and the TGI (PC-3 prostate) was 18.4 µM. It also gave a TGI (RPMI-8226 leukemia) of 7.18 µM, a TGI (RXF 393 renal) of 15.3 µM and a TGI (SF-268 CNS) of 17.4 µM. It also gave a TGI (SF-295 CNS) of 26.5 µM, a TGI (SF-539 CNS) of 6.34 µM and a TGI (SK-MEL-2 melanoma) of 15.5 µM. It also gave a TGI (SK-MEL-28 melanoma) of 12.4 µM, a TGI (SK-MEL-5 melanoma) of 8.43 µM and a TGI (SK-OV-3 ovarian) of 23.3 µM. It also gave a TGI (SN12C renal) of 11.1 µM, a TGI (SNB-19 CNS) of 19.9 µM and a TGI (SNB-75 CNS) of 11.4 µM. For the same compound, the TGI (SR leukemia) was 4.41 µM, the TGI (SW-620 colon) was 11.4 µM and the TGI (T-47D breast) was 16.4 µM. For the same compound, the TGI (TK-10 renal) was 21.3 µM, the TGI (U251 CNS) was 6.05 µM and the TGI (UACC-257 melanoma) was 25 µM. For the same compound, the TGI (UACC-62 melanoma) was 14.4 µM and the TGI (UO-31 renal) was 11.5 µM.

For `C=C1CCC(O)C/C1=C/C=C1\CCCC2(C)C1CCC2C(C)CCCC(C)C` (stereo not drawn), the TGI (786-0 renal) was 30.6 µM, the TGI (A498 renal) was 36.7 µM and the TGI (A549 NSCLC) was 36.3 µM. For the same compound, the TGI (ACHN renal) was 30.6 µM, the TGI (BT-549 breast) was 37.4 µM and the TGI (CAKI-1 renal) was 35.2 µM. The TGI (CCRF-CEM leukemia) was greater than 65.4 µM, the TGI (COLO 205 colon) was 34 µM and the TGI (DU-145 prostate) was 41.3 µM. The TGI (EKVX NSCLC) was 35.4 µM, the TGI (HCC-2998 colon) was 38.6 µM and the TGI (HCT-116 colon) was 28.5 µM. It also gave a TGI (HCT-15 colon) of 35.3 µM, a TGI (HL-60(TB) leukemia) greater than 60.2 µM and a TGI (HOP-62 NSCLC) of 35.4 µM. For the same compound, the TGI (HOP-92 NSCLC) was 33 µM, the TGI (HS 578T breast) was 36.4 µM and the TGI (HT29 colon) was 29.9 µM. It also gave a TGI (IGROV1 ovarian) of 31.3 µM, a TGI (K-562 leukemia) greater than 59.2 µM and a TGI (KM12 colon) of 38 µM. For the same compound, the TGI (LOX IMVI melanoma) was 34.5 µM, the TGI (M14 melanoma) was 34.8 µM and the TGI (MALME-3M melanoma) was 38 µM. For the same compound, the TGI (MCF7 breast) was 29.3 µM, the TGI (MDA-MB-231 breast) was 35.6 µM and the TGI (MDA-MB-435) was 31.3 µM. It also gave a TGI (MDA-N) of 34.3 µM, a TGI (MOLT-4 leukemia) greater than 61.5 µM and a TGI (NCI-H226 lung) of 31.3 µM. For the same compound, the TGI (NCI-H23 lung) was 33.7 µM, the TGI (NCI-H460 lung) was 46.7 µM and the TGI (NCI-H522 lung) was 33 µM. For the same compound, the TGI (NCI/ADR-RES ovarian) was 34.9 µM, the TGI (OVCAR-3 ovarian) was 35.4 µM and the TGI (OVCAR-4 ovarian) was 35.7 µM. It also gave a TGI (OVCAR-5 ovarian) of 37.4 µM, a TGI (OVCAR-8 ovarian) of 33.2 µM and a TGI (PC-3 prostate) of 34.3 µM. It also gave a TGI (RPMI-8226 leukemia) of 64.9 µM, a TGI (RXF 393 renal) of 33.4 µM and a TGI (SF-268 CNS) of 46.5 µM. The TGI (SF-295 CNS) was 35.1 µM, the TGI (SF-539 CNS) was 36.5 µM and the TGI (SK-MEL-2 melanoma) was 37.2 µM. For the same compound, the TGI (SK-MEL-28 melanoma) was 30.4 µM, the TGI (SK-MEL-5 melanoma) was 36.3 µM and the TGI (SK-OV-3 ovarian) was 41.9 µM. For the same compound, the TGI (SN12C renal) was 30.8 µM, the TGI (SNB-19 CNS) was 33.2 µM and the TGI (SNB-75 CNS) was 37.6 µM. It also gave a TGI (SR leukemia) greater than 63.6 µM, a TGI (SW-620 colon) of 31.8 µM and a TGI (T-47D breast) of 38.8 µM. The TGI (TK-10 renal) was 25.1 µM, the TGI (U251 CNS) was 34.4 µM and the TGI (UACC-257 melanoma) was 32.2 µM. The TGI (UACC-62 melanoma) was 34.9 µM and the TGI (UO-31 renal) was 28.3 µM.
